≈ marks a conversion by molar mass, not a printed value.
What was measured:
[1] = molecular target: Dihydroorotate dehydrogenase (quinone), mitochondrial (Homo sapiens, UniProt Q02127); assay: Inhibition of His fused human DHODH expressed in Escherichia coli using DHO as substrate by DCIP absorbance based colorimetry assay
[2] = tested on: MOLM-13; assay: Antiproliferative activity against human MOLM-13 cells incubated for 72 hrs by CellTiter-Glo assay; type: functional, cell-based; settings: MOLM-13, 72 h
[3] = Metabolic stability in human liver microsome assessed as intrinsic clearance pretreated for 5 mins followed by NADPH addition and measured upto 60 mins by HPLC-MS/MS analysis; type: ADME; settings: microsomes, 1.083 h, time < 65 min
[4] = Solubility of compound at pH 7 by HPLC analysis; type: physicochemical; settings: buffer
[5] = tested on: MDR1; assay: Efflux ratio of apparent permeability across basolateral to apical side over apical to basolateral side in dog MDCK-MDR1 cells; type: ADME, cell-based, Canis lupus familiaris
[6] = Stability in human hepatocytes assessed as intrinsic clearance measured per 10^6 cells incubated upto 120 mins by LC-MS/MS analysis; type: ADME, cell-based, Hepatocyte; settings: 2 h

Chain of Dihydroorotate dehydrogenase (quinone), mitochondrial (Q02127 whole entry, the tested form may be a part): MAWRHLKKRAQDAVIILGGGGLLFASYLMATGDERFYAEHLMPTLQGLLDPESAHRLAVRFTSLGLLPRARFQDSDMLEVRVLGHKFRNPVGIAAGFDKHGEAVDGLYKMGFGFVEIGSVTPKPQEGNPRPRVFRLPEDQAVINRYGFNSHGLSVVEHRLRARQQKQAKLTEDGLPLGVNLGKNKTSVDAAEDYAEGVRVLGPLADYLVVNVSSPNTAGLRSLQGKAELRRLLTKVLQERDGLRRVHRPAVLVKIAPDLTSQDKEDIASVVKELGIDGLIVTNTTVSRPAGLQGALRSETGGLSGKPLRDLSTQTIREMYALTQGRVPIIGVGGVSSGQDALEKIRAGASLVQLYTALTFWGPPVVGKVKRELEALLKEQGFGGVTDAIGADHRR

IC50 [1] [nM]	IC50 [2] [nM]	CLH [3] [µL/min/mg]	solubility [4] [µM]	efflux ratio [5]	CLH [6] [µL/min/1e6 cells]	Compound
4.7	9.3	45	–	–	–	CCn1c(CO)nn(-c2nc(O[C@@H](C)C(F)(F)F)c(C(=O)Nc3cnccc3Cl)cc2F)c1=O
302	0.19	15	–	–	–	CCn1c(CO)nn(-c2nc(SC(C)C)c(C(=O)Nc3c(F)cccc3Cl)cc2F)c1=O
22	20	–	–	–	–	CCn1c(CO)nn(-c2nc(OC3CC(F)(F)C3(F)F)c(C(=O)Nc3c(F)cccc3Cl)cc2F)c1=O (stereo not drawn)
2.8	6.5	< 8	< 4	–	–	CCn1c(CO)nn(-c2nc(O[C@@H](C)C(F)(F)F)c(C(=O)Nc3cccnc3Cl)cc2F)c1=O
16	1	–	–	> 30	–	CCn1c(CO)nn(-c2nc(O[C@@H](C)C(F)(F)F)c(C(=O)Nc3c(F)cnc(OC)c3C#N)cc2F)c1=O
2.3	3.6	–	–	–	–	CCn1c(CO)nn(-c2nc(O[C@@H](C)C(F)(F)F)c(C(=O)Nc3c(F)cncc3Cl)cc2F)c1=O
10	26	–	–	17	–	CCn1c(CO)nn(-c2nc(O[C@@H](C)C(F)(F)F)c(C(=O)Nc3cc(OC)ncc3C)cc2F)c1=O
11	13	< 7.7	–	–	–	CCn1c(CO)nn(-c2nc(O[C@@H](C)C(F)(F)F)c(C(=O)Nc3ccnc(OC)c3Cl)cc2F)c1=O
0.56	2.1	< 7.7	373 (≈ 197 µg/mL)	> 30	–	CCn1c(CO)nn(-c2nc(O[C@@H](C)C(F)(F)F)c(C(=O)Nc3c(C)cnc(OC)c3C)cc2F)c1=O
2.4	5	14	61 (≈ 30.6 µg/mL)	–	61	CCn1c(CO)nn(-c2nc(O[C@@H](C)C(F)(F)F)c(C(=O)Nc3c(C)ccnc3F)cc2F)c1=O
5.7	50	–	–	–	–	CCn1c(CO)nn(-c2nc(O[C@@H](C)C(F)(F)F)c(C(=O)Nc3cc(C)cnc3Cl)cc2F)c1=O
3600	200	–	–	–	–	CCn1c(CO)nn(-c2nc(NC(C)C)c(C(=O)Nc3c(F)cccc3Cl)cc2F)c1=O
0.2	0.16	10	< 4	–	–	CCn1c(CO)nn(-c2nc(O[C@@H](C)C(F)(F)F)c(C(=O)Nc3c(F)cccc3Cl)cc2F)c1=O
5.2	6.9	9.1	98 (≈ 49.5 µg/mL)	–	–	CCn1c(CO)nn(-c2nc(O[C@@H](C)C(F)(F)F)c(C(=O)Nc3ncccc3Cl)cc2F)c1=O
32	25	–	–	–	–	CCn1c(CO)nn(-c2nc(OC3CCOC3)c(C(=O)Nc3c(F)cccc3Cl)cc2F)c1=O (racemic)
1.1	1.4	< 7.7	< 4	–	–	CCn1c(CO)nn(-c2nc(O[C@@H](C)C(F)(F)F)c(C(=O)Nc3c(F)cnc(OC)c3Cl)cc2F)c1=O
6.1	5	< 8	–	–	–	CCn1c(CO)nn(-c2nc(O[C@@H](C)C(F)(F)F)c(C(=O)Nc3ccccc3F)cc2F)c1=O
1400	–	–	–	–	–	CCC(C)Nc1nccc(-c2cnc3sc(C)cn3c2=O)n1 (stereo not drawn)
2.4	4	< 7.7	> 400	–	> 400	CCn1c(CO)nn(-c2nc(O[C@@H](C)C(F)(F)F)c(C(=O)Nc3c(C)ccnc3C(F)F)cc2F)c1=O
0.5	0.2	< 7.7	4 (≈ 1.87 µg/mL)	–	–	CCn1c(CO)nn(-c2nc(OC(C)C)c(C(=O)Nc3c(F)cccc3Cl)cc2F)c1=O
0.6	0.7	14	381 (≈ 205 µg/mL)	–	381	CCn1c(CO)nn(-c2nc(O[C@@H](C)C(F)(F)F)c(C(=O)Nc3c(Cl)ccnc3Cl)cc2F)c1=O
0.3	0.3	10	51 (≈ 27.3 µg/mL)	–	51	CCn1c(CO)nn(-c2nc(O[C@@H](C)C(F)(F)F)c(C(=O)Nc3c(Cl)ccnc3OC)cc2F)c1=O
0.8	3	–	–	> 30	–	CCn1c(CO)nn(-c2nc(O[C@@H](C)C(F)(F)F)c(C(=O)Nc3c(C)cc(OC)nc3Cl)cc2F)c1=O
14	13	–	–	–	–	CCn1c(CO)nn(-c2nc(O[C@@H](C)C(F)(F)F)c(C(=O)Nc3ccc(C)nc3Cl)cc2F)c1=O
1.9	5.3	< 7.7	> 400	–	> 400	CCn1c(CO)nn(-c2nc(O[C@@H](C)C(F)(F)F)c(C(=O)Nc3c(Cl)ccnc3C)cc2F)c1=O
23	61	15	< 4	–	–	CCn1c(CO)nn(-c2nc(O[C@@H](C)C(F)(F)F)c(C(=O)Nc3ccncc3Cl)cc2F)c1=O

From ChEMBL document CHEMBL5137081, “N-Heterocyclic 3-Pyridyl Carboxamide Inhibitors of DHODH for the Treatment of Acute Myelogenous Leukemia” (J Med Chem, 2022)
